System: HT-29 spheroids encapsulated BECM
Assay: Drug response of HT-29 spheroid BECMs by CELLTITER GLO 3D cell viability assay
Assay type: cell-based
Conditions: biomaterial-encapsulated HT-29 cancer cell spheroids; Osimertinib 0, 2, 4 and 8 μM; 72 hrs at 37° C.; n=10; FIG. 7
Excerpt: Commercially available 3D cell viability assay, CELLTITER GLO (Promega Corp.), was used to determine the cell viability of the BECMs.

## C=CC(=O)Nc1cc(Nc2nccc(-c3cn(C)c4ccccc34)n2)c(OC)cc1N(C)CCN(C)C [Osimertinib]
  cell viability of the BECMs (dose-response): a typical 3D cell culture viability dose-response was obtained

Reference: patent US20240392250A1, “HIGH-THROUGHPUT SELECTION AND FABRICATION OF BIOMATERIAL-ENCAPSULATED CELL MASS AND USES THEREOF” (BioArchitec Group Limited, priority 2022, published 2024)
